Experimental data taken from patent US20260226470A1, “HEPATITIS B COMBINATION THERAPIES” (Aligos Therapeutics, Inc., priority 2023, published 2026).
Oligonucleotides are written 5' to 3', each unit as a sugar letter and its base; * is a phosphorothioate linkage, no mark a phosphodiester; rarer units and linkages stand in square brackets, end groups in braces. Plain capitals give the bases only. m = 2'-O-methyl; f = 2'-fluoro

Columns and labels:
[1] = test system: adeno-associated virus-hepatitis B virus (AAV-HBV) mice; experiment: In vivo compound efficacy in AAV-HBV mice, Example 1 (Compound 1 and siRNA-1); set-up: species or system Mouse: C57BL/6; conditions: plasma, follow-up to Day 189
Protocol: In vivo compound efficacy was evaluated in adeno-associated virus-hepatitis B virus (AAV-H-BV) mice. Materials and methods are presented below in tables 1-4. Table F describes the nucleic acid sequences used for siRNA-1, an siRNA. The sequences are described using modified nucleotide annotations found in Table B.
Live Phase Parameters: Based on plasma viral markers levels and body weight, 20 mice were selected and randomized into five groups for treatment. Checks were made for dead and/or moribund animals daily. Overt changes were recorded. Body weight was measured twice weekly during Day 0-97, and once weekly during Day 98-189.
Vehicle (Group 01) and Compound 1 at 55 mg/kg/dose (Groups 02, 04 and 05) were administered by oral gavage twice daily during Day 0-97. siRNA-1 at 5 mg/kg/dose was injected subcutaneously on Days 0, 14, 42 and 70 for Groups 03 and 04, and on Days 70, 84, and 102 for Group 05.
Plasma samples of 50 μL per mouse were prepared once weekly prior to dosing during Day 0-189. The samples were used for quantitative detections of HBsAg, HBeAg, and HBV DNA. Mice were sacrificed on Day 189.

HBV = experiment: siRNA treatment followed by CAM add-on, in vivo in mice, Example 3; conditions: FIGS. 13A-13B, 16A-16B; CAM 30 mpk BID day 63-98; siRNA-2 10 mpk SC QW day 0-98
Protocol: In the following example, initial treatment with an siRNA, followed by CAM add-on, was tested in vivo in mice.
The study design is described below in Table 9.
QW dosing of siRNA-2 was continued until the end of the study (day 98). HBV DNA, HBsAg, and HBeAg were measured weekly through day 98.

| Compound | HBsAg effect after end of treatment (sustained or rebound) ([1]; FIGS. 3A-3B) | HBeAg effect after end of treatment (sustained or rebound) ([1]; FIGS. 4A-4B) | reduction of HBV DNA (HBV) |
| --- | --- | --- | --- |
| siRNA-1: siRNA with SEQ ID NO: 2 (Sense) and SEQ ID NO: 3 (Antisense), modified nucleotides per Table B (sense mC*mC*mGmUfGmUfGfCfAmCmUmUmCmGmCmUmUmCmA; antisense mU*fG*mAmAfGmCmGfAmAmGmUmGmCfAmCmAfCmGmG*mU*mC) | rebound is observed | rebound is observed |  |
| C=C[C@H](C)Nc1nc2c(c(=O)n1-c1ccc(C(=O)NC)cc1)C[C@@H](C)N(C(=O)c1ccc(Br)c(C(F)(F)F)c1)C2 [Compound 2, 4-((R)-7-(4-bromo-3-(trifluoromethyl)benzoyl)-2-(((S)-but-3-en-2-yl)amino)-6-methyl-4-oxo-5,6,7,8-tetrahydropyrido[3,4-d]pyrimidin-3(4H)-yl)-N-methylbenzamide] |  |  | good reduction of HBV DNA |
